Test results as given in PubChem BioAssay AID330 (DTP/NCI, 2004).
“And” between values parts separate entries of the source, which are not always exact repeats. Identical values can stand only once. Inconclusive results and toxic doses are left out. How the source made its calls: active means survival T/C of 150% or more; inactive means T/C below 125% in these data.

Tested on: P388 leukemia ip, CD2F1 mice, survival T/C
Test: NCI In Vivo Anticancer Drug Screen. Data for tumor model P388 Leukemia (intraperitoneal) in CD2F1 (CDF1) mice
Conditions: endpoint: median survival time, higher = longer survival
Outline: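 Mice carrying the transplanted tumor received test compound or vehicle. Survival was recorded in each group, and the value is the treated-group measurement divided by that of the vehicle-treated control group.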

[1] = dose: 12.5 mg/kg/injection, schedule: Q01DX009 (ip), vehicle: saline with Tween-80
[2] = dose: 12.5 mg/kg/injection, schedule: Q01DX009 (ip), vehicle: saline
[3] = dose: 25.0 mg/kg/injection, schedule: Q01DX009 (ip), vehicle: saline with Tween-80
[4] = dose: 25.0 mg/kg/injection, schedule: Q01DX009 (ip), vehicle: saline
[5] = dose: 50.0 mg/kg/injection, schedule: Q01DX009 (ip), vehicle: saline with Tween-80
[6] = dose: 50.0 mg/kg/injection, schedule: Q01DX009 (ip), vehicle: saline
[7] = dose: 100.0 mg/kg/injection, schedule: Q01DX009 (ip), vehicle: saline
[8] = dose: 50.0 mg/kg/injection, schedule: Q01DX005 (ip), vehicle: saline with Tween-80
[9] = dose: 100.0 mg/kg/injection, schedule: Q01DX005 (ip), vehicle: saline with Tween-80
[10] = dose: 200.0 mg/kg/injection, schedule: Q01DX005 (ip), vehicle: saline with Tween-80
[11] = dose: 50.0 mg/kg/injection, schedule: Q01DX009 (ip), vehicle: Klucel (hydroxypropylcellulose) (HPC)
[12] = dose: 100.0 mg/kg/injection, schedule: Q01DX009 (ip), vehicle: Klucel (hydroxypropylcellulose) (HPC)
[13] = dose: 200.0 mg/kg/injection, schedule: Q01DX009 (ip), vehicle: Klucel (hydroxypropylcellulose) (HPC)
[14] = dose: 100.0 mg/kg/injection, schedule: Q01DX009 (ip), vehicle: saline with Tween-80
[15] = dose: 200.0 mg/kg/injection, schedule: Q01DX009 (ip), vehicle: saline with Tween-80
[16] = dose: 60.0 mg/kg/injection, schedule: Q01DX005 (ip), vehicle: saline with Tween-80
[17] = dose: 120.0 mg/kg/injection, schedule: Q01DX005 (ip), vehicle: saline with Tween-80
[18] = dose: 240.0 mg/kg/injection, schedule: Q01DX005 (ip), vehicle: saline with Tween-80
[19] = dose: 15.0 mg/kg/injection, schedule: Q01DX005 (ip), vehicle: saline with Tween-80
[20] = dose: 30.0 mg/kg/injection, schedule: Q01DX005 (ip), vehicle: saline with Tween-80
[21] = dose: 50.0 mg/kg/injection, schedule: Q01DX005 (ip), vehicle: saline
[22] = dose: 100.0 mg/kg/injection, schedule: Q01DX005 (ip), vehicle: saline
[23] = dose: 200.0 mg/kg/injection, schedule: Q01DX005 (ip), vehicle: saline

Measured: T/C

COC(=O)c1cc2c(s1)CCC/C(Cl)=C(/C=O)C2
inactive: dose: 6.25 mg/kg/injection, schedule: Q01DX009 (ip), vehicle: saline with Tween-80 96 % of control | dose: 6.25 mg/kg/injection, schedule: Q01DX009 (ip), vehicle: saline 97 % of control | [1] 104 % of control and 94 % of control | [2] 91 % of control | [3] 106 % of control and 95 % of control | [4] 97 % of control | [5] 100 % of control and 107 % of control | [6] 101 % of control and 120 % of control | [7] 103 % of control

O=C1c2ccccc2C(=O)N1CC(O)COCc1ccccc1 (stereo unspecified)
inactive: [8] 102 % of control | [9] 98 % of control | [10] 100 % of control

C=C1C(=O)OC2/C=C(\C)C3OC3/C=C(/C(=O)OC)C(OC(C)=O)C(OC(=O)C(C)(O)C(C)OC(C)=O)C12 (stereo unspecified)
inactive: dose: 1.5 mg/kg/injection, schedule: Q01DX009 (ip), vehicle: Klucel (hydroxypropylcellulose) (HPC) 114 % of control | dose: 12.0 mg/kg/injection, schedule: Q01DX009 (ip), vehicle: Klucel (hydroxypropylcellulose) (HPC) 106 % of control

Nc1cc(=O)cc2nn[nH]n12
inactive: [11] 102 % of control | [12] 108 % of control | [13] 101 % of control

CN1CCN(CCCN2c3ccccc3Sc3cc(N4c5ccccc5Sc5ccc(C(F)(F)F)cc54)c(C(F)(F)F)cc32)CC1
inactive: dose: 100.0 mg/kg/injection, schedule: Q04DX003 (ip), vehicle: Klucel (hydroxypropylcellulose) (HPC) 95 % of control | dose: 200.0 mg/kg/injection, schedule: Q04DX003 (ip), vehicle: Klucel (hydroxypropylcellulose) (HPC) 95 % of control | dose: 400.0 mg/kg/injection, schedule: Q04DX003 (ip), vehicle: Klucel (hydroxypropylcellulose) (HPC) 107 % of control

O=C(c1ccc(O)cc1)c1ccc(C(=O)c2ccc(O)cc2)cc1
inactive: [11] 99 % of control | [12] 97 % of control | [13] 90 % of control

CCOC(=O)Nc1cc(NC(c2ccccc2)c2ccccc2)c2[nH]cnc2n1
inactive: [3] 88 % of control | [5] 88 % of control | [14] 117 % of control | [15] 96 % of control

COc1ccc2c(c1)CCC1(C)CC(=O)C=C21 (stereo unspecified)
inactive: dose: 6.25 mg/kg/injection, schedule: Q01DX009 (ip), vehicle: Klucel (hydroxypropylcellulose) (HPC) 115 % of control | dose: 12.5 mg/kg/injection, schedule: Q01DX009 (ip), vehicle: Klucel (hydroxypropylcellulose) (HPC) 114 % of control | dose: 25.0 mg/kg/injection, schedule: Q01DX009 (ip), vehicle: Klucel (hydroxypropylcellulose) (HPC) 108 % of control

COc1ccc2c(c1)CN1C(CCC3c4ccccc4NC31)C2 (stereo unspecified)
inactive: [16] 99 % of control | [17] 95 % of control | [18] 95 % of control

Cc1nc2ccc(N)cc2oc1=O
inactive: [19] 100 % of control | [20] 101 % of control | [16] 105 % of control and 98 % of control

CN1C(=O)CCC1c1nc2ccccc2[nH]1 (stereo unspecified)
inactive: [16] 102 % of control | [17] 101 % of control | [18] 96 % of control

N#CC(CN1CCOCC1)CN1CCOCC1
inactive: [5] 95 % of control | [14] 101 % of control | [15] 96 % of control

CC(O)C(N)C(=O)O (stereo unspecified)
inactive: [21] 104 % of control | [6] 103 % of control | [22] 100 % of control and 108 % of control | [7] 105 % of control | [23] 100 % of control and 103 % of control | dose: 200.0 mg/kg/injection, schedule: Q01DX009 (ip), vehicle: saline 102 % of control

C[n+]1c(/C=C/c2ccccc2Cl)ccc2ccccc21
inactive: [1] 94 % of control | [3] 100 % of control | [5] 94 % of control

COc1c2occc2c(OC(C)C(=O)O)c2c(O)cc(=O)oc12 (stereo unspecified)
inactive: [8] 95 % of control | [9] 101 % of control | [10] 95 % of control

Cc1cc(Cl)ccc1OCC(C)OC(=O)NC(C)C (stereo unspecified)
inactive: [11] 106 % of control | [12] 97 % of control | [13] 101 % of control

COC(=O)C1(c2ccccc2)OP2(N(C)C)(OCCN2C)OC1(C(=O)OC)c1ccccc1 (stereo unspecified)
inactive: [8] 104 % of control | [9] 98 % of control | [10] 91 % of control

c1cc2nncn2cn1
inactive: [11] 93 % of control | [12] 104 % of control | [13] 99 % of control

N#CC1(OC2OC(CO)C(O)C(O)C2O)C=CC(O)C1O (stereo unspecified)
inactive: dose: 25.0 mg/kg/injection, schedule: Q01DX005 (ip), vehicle: saline 106 % of control | [21] 120 % of control | [22] 111 % of control and 97 % of control | [23] 121 % of control and 97 % of control | dose: 400.0 mg/kg/injection, schedule: Q01DX005 (ip), vehicle: saline 102 % of control

COc1ccc2c(c1)OC(C)(C)C(c1ccccc1)=C2c1ccc(O)cc1
inactive: [19] 97 % of control | [20] 92 % of control | [16] 95 % of control

CN1CCC(=C2c3ccccc3Oc3ncccc32)CC1
inactive: [2] 102 % of control | [4] 111 % of control | [5] 102 % of control | [6] 99 % of control

CCc1nc2cc(C)ncn2n1
inactive: dose: 100.0 mg/kg/injection, schedule: Q04DX003 (ip), vehicle: saline 100 % of control | dose: 200.0 mg/kg/injection, schedule: Q04DX003 (ip), vehicle: saline 96 % of control | dose: 400.0 mg/kg/injection, schedule: Q04DX003 (ip), vehicle: saline 101 % of control

O=S1(=O)CC(N2CCOCC2)C2=C(O1)c1sc(-c3ccccc3)nc1CC2 (stereo unspecified)
inactive: dose: 50.0 mg/kg/injection, schedule: Q01DX005 (ip), vehicle: Klucel (hydroxypropylcellulose) (HPC) 104 % of control | dose: 100.0 mg/kg/injection, schedule: Q01DX005 (ip), vehicle: Klucel (hydroxypropylcellulose) (HPC) 105 % of control | dose: 200.0 mg/kg/injection, schedule: Q01DX005 (ip), vehicle: Klucel (hydroxypropylcellulose) (HPC) 98 % of control

CC(C)(C)c1ccc(O)c(CNCc2ccccc2)c1
inactive: dose: 25.0 mg/kg/injection, schedule: Q01DX005 (ip), vehicle: Klucel + Tween-80 99 % of control | dose: 50.0 mg/kg/injection, schedule: Q01DX005 (ip), vehicle: Klucel + Tween-80 97 % of control | dose: 100.0 mg/kg/injection, schedule: Q01DX005 (ip), vehicle: Klucel + Tween-80 93 % of control | dose: 200.0 mg/kg/injection, schedule: Q01DX005 (ip), vehicle: Klucel + Tween-80 100 % of control

O=C(O)c1cccc2nc3cc4c(c(C(=O)O)c3nc12)OCO4
inactive: [16] 93 % of control | [17] 99 % of control | [18] 105 % of control

NC(C[O-])C(=O)[O-].NCC(=O)[O-].[Mn+3] (stereo unspecified)
inactive: dose: 100.0 mg/kg/injection, schedule: Q04DX002 (ip), vehicle: saline with Tween-80 114 % of control | dose: 200.0 mg/kg/injection, schedule: Q04DX002 (ip), vehicle: saline with Tween-80 113 % of control

CCCCCCCC(Nc1nncs1)Nc1nncs1
inactive: [19] 101 % of control | [20] 92 % of control | [16] 87 % of control and 90 % of control | [18] 91 % of control

OO.OO.[Cr+3].[NH-]CC[N-]CC[NH-]
inactive: [5] 94 % of control | [14] 99 % of control
